Results from patent US8067009B1, “Metalloproteinase oligopeptides and their therapeutic use” (priority 2011, dated 2011).
Where no end group is shown, it is not given here.

How the values were obtained:
[1] = test system: human cervical cancer HeLa cells; assay: Matrigel invasion with anti-sera from immunized mice; type: cell-based; settings: anti-sera 1:100 dilution, 24 hours, FIGS. 3A-3D
Procedure: Human cervical cancer (Hela) and murine melanoma B16F0 cells obtained from ATCC (American Type Culture Collection, Rockville, Md.) were maintained in Dulbecco's modified Eagle's medium supplemented with 10% fetal bovine serum and antibiotics. The media and sera used were obtained from ATCC, and antibiotics (penicillin and streptomycin) were from Gibco BRL, Long Island, N.Y.
Invasion studies were conducted using Matrigel™ (Becton Dickinson) inserts in 24-well plates. Suspended in medium containing anti-sera from the experimental immunized mice 1:100 dilution, human cervical cancer HeLa cells seeded on the insert in the well. The well has human dermal fibroblast primed media as chemotaxtant. The plates with the inserts were then incubated in a culture incubator equilibrated with 95% air and 5% CO: for 24 hours. After incubation, the media from the wells were withdrawn. The cells on the upper surface of the insert were gently scrubbed away with cotton swabs. The cells that had penetrated the Matrigel™ membrane were stained with hematoxylin and eosin (H&E) and visually counted under the microscope.

anti-peptide mouse IgG = assay: Anti-peptide immune response assay (Elisa) on serum of immunized mice; type: in vivo, Male C57BL/6 mice; settings: for Elisa Test pep before B16FO given / Elisa Test pep after B16FO given: read at 450 nm
Procedure: In another embodiment, the synthesized oligopeptides were biotinylated at N-terminal using four carbon spacers by Genscript (Pitcataway, N.J. 08554 USA) and conjugated to KLH protein. In an experiment performed on mice animals were procured, immunized, tumor induced and observed for effectiveness of the treatment of oligopeptide-induced immunotherapy.
The injections were prepared using 100 μl l of KLH conjugated biotinylated peptides and 100 μl of complete Freund's adjuvant (Sigma, St. Louis, Mo.).
(§1) Male C57BL/6 mice 6 weeks of age on arrival were purchased from Simonsen Laboratories, Gilroy, Calif. and maintained in microisolator cage under pathogen-free conditions on a 12-h light/12-h dark schedule for a week. All animals were cared for in accordance with institutional guidelines for the care and use of experimental animals. After housing for a week, the mice (n=5/group) were immunized by intraperitoneal injection on Day 0, and incomplete Freund adjuvant (Sigma) on Day 7, 14 and 28. The blood samples were tested for their immune response by standard Elisa test using microtiter plates. Repeating injections of synthetic peptides in mice produce an immune response to specific individual peptides. Various dilutions were tried and examples of dilutions tried are 1:100, 1:1000 and 1:10000.
All four peptides were conjugated covalently to keyhole limpet hemocyanin (KLH) protein. In a typical experiment 1 mg of the peptide, 4 mg of KLH was dissolved in 5 ml of 0.01 M NaHCO3 and 2 μl of glutaraldehyde and stirred overnight. At the end 100 μl of 1M glycine ethyl ester to the final concentration of 0.1 M and left for 30 min at room temperature. Then precipitated with 4-5 vol of cold acetone at −70 C for 30 minute. Then briefly warmed at room temperature and pellet at 10,000 g for 10 min. The pellet was dissolved in 1 ml of 0.1M NaHCO3 and stored at −20° C.
Microtiter plates were coated with individual peptide in 100 µl/well […] carbonate buffer, pH 9.5 for 20 h at 20° C. After washing, wells were incubated with serial dilution of mouse serum in PBS/0.5% BSA, Tween 20 (binding buffer, BB). After washing, well were incubated with 100 µl/well rabbit anti-mouse IgG polyclonal antibody conjugated with horseradish peroxidase (HRP) in BB for 30 rain at 37° C. After washing, the titer of anti-peptide mouse IgG was determined by color reaction with TMB substrate solution at 450 nm.

[2] = test system: murine melanoma B16F0 cells; assay: Tumor growth after challenge of immunized mice with melanoma cells; type: in vivo, Male C57BL/6 mice; settings: visual, FIG. 7 A-E
Text: as §1
After dosing the mice, on 45th day, mice were bleed through orbital puncture and blood was collected in 2-ml micro centrifuged tube. After testing for immune response against individual peptides, the mice in each group were inoculated subcutaneously with 0.5×10^6 in 0.2 ml PBS. After injection, the mice were returned the cages and fed regular Purina mouse chow diet. After four weeks, the mice were sacrificed and their tumors were excised. Dimensions (length and width) of tumors were measured using digital caliper, and tumor burden was calculated using the following formula: […].

[3] = column 5, serum dilution 1:1000
[4] = column 5, serum dilution 1:10000
[5] = column 6, serum dilution 1:1000
[6] = column 6, serum dilution 1:10000
[7] = column 7, serum dilution 1:1000
[8] = column 7, serum dilution 1:10000
[9] = column 8, serum dilution 1:1000
[10] = column 8, serum dilution 1:10000
[11] = column 9, serum dilution 1:1000
[12] = column 9, serum dilution 1:10000
[13] = column 10, serum dilution 1:100
[14] = column 10, serum dilution 1:1000
[15] = column 10, serum dilution 1:10000
[16] = column 11, serum dilution 1:100
[17] = column 11, serum dilution 1:1000
[18] = column 11, serum dilution 1:10000
[19] = column 12, serum dilution 1:100
[20] = column 12, serum dilution 1:1000
[21] = column 12, serum dilution 1:10000

Substance | Elisa Test pep before B16FO given (anti-peptide mouse IgG; column 5, serum dilution 1:100) | Elisa Test pep before B16FO given (anti-peptide mouse IgG; [3]) | Elisa Test pep before B16FO given (anti-peptide mouse IgG; [4]) | Elisa Test pep before B16FO given (anti-peptide mouse IgG; column 6, serum dilution 1:100) | Elisa Test pep before B16FO given (anti-peptide mouse IgG; [5]) | Elisa Test pep before B16FO given (anti-peptide mouse IgG; [6]) | Elisa Test pep before B16FO given (anti-peptide mouse IgG; column 7, serum dilution 1:100) | Elisa Test pep before B16FO given (anti-peptide mouse IgG; [7]) | Elisa Test pep before B16FO given (anti-peptide mouse IgG; [8]) | Elisa Test pep before B16FO given (anti-peptide mouse IgG; column 8, serum dilution 1:100) | Elisa Test pep before B16FO given (anti-peptide mouse IgG; [9]) | Elisa Test pep before B16FO given (anti-peptide mouse IgG; [10]) | Elisa Test pep after B16FO given (anti-peptide mouse IgG; column 9, serum dilution 1:100) | Elisa Test pep after B16FO given (anti-peptide mouse IgG; [11]) | Elisa Test pep after B16FO given (anti-peptide mouse IgG; [12]) | Elisa Test pep after B16FO given (anti-peptide mouse IgG; [13]) | Elisa Test pep after B16FO given (anti-peptide mouse IgG; [14]) | Elisa Test pep after B16FO given (anti-peptide mouse IgG; [15]) | Elisa Test pep after B16FO given (anti-peptide mouse IgG; [16]) | Elisa Test pep after B16FO given (anti-peptide mouse IgG; [17]) | further results
-C-H-F-P-F-I-F-E-G-R-S-Y-S-A-C- (CHFPFIFEGRSYSAC; cysteine pairing not given here; also: biotinylated, KLH conjugate) [MMP-9 A-1, MMP-9 oligopeptide, biotinylated and conjugated to KLH for immunization] | 3.898 | 3.402 | .394 | 3.868 | 1.901 | .274 | 3.843 | 1.033 | .228 | 3.895 | 2.127 | .330 | 3.897 | 3.624 | .645 | 3.864 | 1.875 | .244 | 3.820 | .999 | cells invading through the Matrigel compared to control [1]: more in number compared to MMP-9 A1 treated cells; Elisa Test pep after B16FO given (anti-peptide mouse IgG; [18]): .226; Elisa Test pep after B16FO given (anti-peptide mouse IgG; [19]): 3.87; Elisa Test pep after B16FO given (anti-peptide mouse IgG; [20]): 2.01; Elisa Test pep after B16FO given (anti-peptide mouse IgG; [21]): .22
-C-P-R-K-P-K-W-D-K-C- (CPRKPKWDKC; cysteine pairing not given here; also: biotinylated, KLH conjugate) [MMP-2 A-4, MMP-2 oligopeptide, biotinylated and conjugated to KLH for immunization] | 1.485 | .650 | .220 | 2.409 | .974 | .257 | 1.811 | .771 | .208 | 1.649 | .289 | .168 | 1.836 | .706 | .290 | 3.172 | 1.286 | .313 | 2.278 | .775 | intensity of immune response (anti-peptide mouse IgG; 1:100 dilution): slightly less; Elisa Test pep after B16FO given (anti-peptide mouse IgG; [18]): .230; Elisa Test pep after B16FO given (anti-peptide mouse IgG; [19]): 1.621; Elisa Test pep after B16FO given (anti-peptide mouse IgG; [20]): .294; Elisa Test pep after B16FO given (anti-peptide mouse IgG; [21]): .167
-D-R-D-K-L-F-G-F-C-P-T-R-A-D-S- (DRDKLFGFCPTRADS; also: biotinylated, KLH conjugate) [MMP-9 A-3, MMP-9 oligopeptide, biotinylated and conjugated to KLH for immunization] | 3.775 | .394 | .159 | 3.810 | 2.157 | .631 | 1.991 | .272 | .159 | 3.812 | 2.281 | .267 | 3.776 | .448 | .167 | 3.814 | 1.332 | .209 | 2.063 | .448 | Elisa Test pep after B16FO given (anti-peptide mouse IgG; [18]): .158; Elisa Test pep after B16FO given (anti-peptide mouse IgG; [19]): 3.84; Elisa Test pep after B16FO given (anti-peptide mouse IgG; [20]): 2.34; Elisa Test pep after B16FO given (anti-peptide mouse IgG; [21]): .296; size of excised tumors [2]: one of the tumors have completely disappeared
-D-T-D-D-R-F-G-F- (DTDDRFGF; also: biotinylated, KLH conjugate) [M MP-9 A-2, MMP-9 oligopeptide, biotinylated and conjugated to KLH for immunization] | 3.581 | .646 | .224 | 3.863 | 1.339 | .261 | 3.870 | 2.856 | .477 | 3.238 | .360 | .175 | 3.635 | .526 | .203 | 3.609 | .859 | .235 | 3.465 | .277 | Elisa Test pep after B16FO given (anti-peptide mouse IgG; [18]): .161; Elisa Test pep after B16FO given (anti-peptide mouse IgG; [19]): 3.86; Elisa Test pep after B16FO given (anti-peptide mouse IgG; [20]): .274; Elisa Test pep after B16FO given (anti-peptide mouse IgG; [21]): .348
